Source: the supplement of paper PMC11061612

What was measured:
Assay in all cases: combination Emax (second highest fraction inhibited in the dose matrix, 72 h); higher = more inhibition; extreme values may be limits of the assay
769-P (Kidney Carcinoma) = system: 769-P (Kidney Carcinoma)
In short: (§1)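 Cell lines grown in DMEM/F12 or RPMI with 10% FBS were plated in 1536-well plates and held 24 hours at 37°C, 5% CO2 before 72 hours of exposure to two-drug dose matrices, with DMSO typically at 0.2%. CellTiter-Glo 2.0 luminescence gave viability, which was converted to inhibition. Vehicle wells were set to 0 and blank wells to 1. Combination Emax is the second-highest inhibition in the matrix, and Bliss excess is the observed combination effect minus the expected EA + EB − EA·EB, where EA and EB are the single-agent effects.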

A101D (Melanoma) = system: A101D (Melanoma)
In short: as §1

A204 (Rhabdomyosarcoma) = system: A204 (Rhabdomyosarcoma)
In short: as §1

[1] = system: A2780 (Ovarian Carcinoma)
In short: as §1

[2] = system: CA46 (Burkitt's Lymphoma)
In short: as §1

[3] = system: CGTH-W-1 (Thyroid Gland Carcinoma)
In short: as §1

[4] = system: DU-4475 (Breast Carcinoma)
In short: as §1

[5] = system: G-402 (Other Solid Carcinomas)
In short: as §1

IM-9 (Non-Cancerous) = system: IM-9 (Non-Cancerous)
In short: as §1

[6] = system: JHH-2 (Hepatocellular Carcinoma)
In short: as §1

[7] = system: JVM-2 (B-Cell Non-Hodgkin's Lymphoma)
In short: as §1

[8] = system: KYSE-140 (Esophageal Squamous Cell Carcinoma)
In short: as §1

[9] = system: KYSE-220 (Esophageal Squamous Cell Carcinoma)
In short: as §1

[10] = system: NCI-H1703 (Squamous Cell Lung Carcinoma)
In short: as §1

[11] = system: NCI-H441 (Lung Adenocarcinoma)
In short: as §1

[12] = system: NCI-H716 (Colorectal Carcinoma)
In short: as §1

[13] = system: OACp4C (Esophageal Adenocarcinoma)
In short: as §1

[14] = system: SK-HEP-1 (Hepatocellular Carcinoma)
In short: as §1

[15] = system: UACC-812 (Breast Carcinoma)
In short: as §1

[16] = system: huH-1 (Hepatocellular Carcinoma)
In short: as §1

Structure (SMILES)	combination Emax (769-P (Kidney Carcinoma))	combination Emax (A101D (Melanoma))	combination Emax (A204 (Rhabdomyosarcoma))	combination Emax [1]	combination Emax [2]	combination Emax [3]	combination Emax [4]	combination Emax [5]	combination Emax (IM-9 (Non-Cancerous))	combination Emax [6]	combination Emax [7]	combination Emax [8]	combination Emax [9]	combination Emax [10]	combination Emax [11]	combination Emax [12]	combination Emax [13]	combination Emax [14]	combination Emax [15]	combination Emax [16]
COc1nnc2ccc(N3CCC(c4ccc(OCCN5CCN(C)C(=O)[C@H]5C)cc4)CC3)nn12 [AZD5153] + Cc1c2c(nn1C)CSCc1cc(n(C)n1)CSc1cc(c3ccccc3c1)OCCCc1c(C(=O)O)n(C)c3c-2c(Cl)ccc13 [AZD5991] (first compound max 1 µM, 7x7, partner max 1 µM)	0.727	0.924	0.73	0.977	0.64	0.428	0.974	0.987	0.886	0.343	0.711	0.603	0.842	0.966	0.384	0.817	0.789	0.583	0.8	0.435
CC1(C)CCC(CN2CCN(c3ccc(C(=O)NS(=O)(=O)c4ccc(NCC5CCOCC5)c([N+](=O)[O-])c4)c(Oc4cnc5[nH]ccc5c4)c3)CC2)=C(c2ccc(Cl)cc2)C1 [Venetoclax] + Cn1cnc2c(F)c(Nc3ccc(Br)cc3Cl)c(C(=O)NOCCO)cc21 [Selumetinib] (first compound max 1 µM, 7x7, partner max 3 µM)	0.292	0.568	0.206	0.377	0.403	0.124	1	0.2	0.901	0.388	0.392	0.233	0.31	0.178	0.255	0.366	0.488	0.234	0.0864	0.114
CC1(C)CCC(CN2CCN(c3ccc(C(=O)NS(=O)(=O)c4ccc(NCC5CCOCC5)c([N+](=O)[O-])c4)c(Oc4cnc5[nH]ccc5c4)c3)CC2)=C(c2ccc(Cl)cc2)C1 [Venetoclax] + CN(C)CCCOc1ccc(-c2ccc3ncc4c(c3c2)n(C2CCOCC2)c(=O)n4C)cn1 [AZD0156] (first compound max 1 µM, 7x7, partner max 1 µM)	0.256	0.365	0.31	0.491	0	0.17	0.0995	0.359	0.812	0.334	0.34	0.289	0.195	0.407	0.25	0.0954	0.224	0.158	0.146	0.171
COc1nnc2ccc(N3CCC(c4ccc(OCCN5CCN(C)C(=O)[C@H]5C)cc4)CC3)nn12 [AZD5153] + CCN(CCO)CCCOc1ccc2c(Nc3cc(CC(=O)Nc4cccc(F)c4)[nH]n3)ncnc2c1 [AZD2811] (first compound max 1 µM, 7x7, partner max 1 µM)	0.711	0.693	0.466	0.783	0.652	0.308	0.944	0.825	0.897	0.416	0.729	0.626	0.677	0.721	0.381	0.529	0.683	0.41	0.298	0.527
COc1cccc2c1C(=O)c1c(O)c3c(c(O)c1C2=O)C[C@@](O)(C(=O)CO)C[C@@H]3O[C@H]1C[C@H](N)[C@H](O)[C@H](C)O1 [Doxorubicin] + Cc1cc2ncnn2cc1Nc1ncc2c(n1)n(C1CCOCC1)c(=O)n2C [AZD7648] (first compound max 1 µM, 7x7, partner max 10 µM)	0.706	0.897	0.925	0.934	0.777	0.749	1	0.949	1	0.627	0.983	0.442	0.979	0.932	0.452	0.305	0.783	0.872	0.296	0.55
Cc1c2c(nn1C)CSCc1cc(n(C)n1)CSc1cc(c3ccccc3c1)OCCCc1c(C(=O)O)n(C)c3c-2c(Cl)ccc13 [AZD5991] + C=CCn1c(=O)c2cnc(Nc3ccc(N4CCN(C)CC4)cc3)nc2n1-c1cccc(C(C)(C)O)n1 [AZD1775] (first compound max 1 µM, partner max 1 µM)	0.858	1	0.829	0.858	0.633	0.19	0.977	0.965	0.986	0.58	0.966	0.905	0.848	0.954	0.471	0.611	0.951	0.35	0.478	0.552
Cc1c2c(nn1C)CSCc1cc(n(C)n1)CSc1cc(c3ccccc3c1)OCCCc1c(C(=O)O)n(C)c3c-2c(Cl)ccc13 [AZD5991] + Cn1cnc2c(F)c(Nc3ccc(Br)cc3Cl)c(C(=O)NOCCO)cc21 [Selumetinib] (first compound max 1 µM, 7x7, partner max 3 µM)	0.227	1	0.459	0.538	0.0912	0.181	1	0.955	0.848	0.342	0.646	0.439	0.304	0.856	0.405	0.515	0.835	0.311	0.579	0.152
Cn1cnc2c(F)c(Nc3ccc(Br)cc3Cl)c(C(=O)NOCCO)cc21 [Selumetinib] + CC(C)n1c(=O)n(C)c2cnc3cc(F)c(-c4ccc(OCCCN5CCCCC5)nc4)cc3c21 [AZD1390] (first compound max 10 µM, 7x7, partner max 0.3 µM)	0.294	0.528	0.149	0.574	0.306	0.044	1	0.222	0.796	0.315	0.352	0.191	0.405	0.122	0.221	0.452	0.43	0.193	0.129	0.107
CN(C)CCCOc1ccc(-c2ccc3ncc4c(c3c2)n(C2CCOCC2)c(=O)n4C)cn1 [AZD0156] + C=CCn1c(=O)c2cnc(Nc3ccc(N4CCN(C)CC4)cc3)nc2n1-c1cccc(C(C)(C)O)n1 [AZD1775] (first compound max 1 µM, partner max 1 µM)	0.766	0.495	0.27	0.79	0.636	0.188	0.924	0.363	0.986	0.53	0.888	0.844	0.812	0.967	0.329	0.482	0.83	0.469	0.156	0.592
CN(C)CCCOc1ccc(-c2ccc3ncc4c(c3c2)n(C2CCOCC2)c(=O)n4C)cn1 [AZD0156] + CCN(CCO)CCCOc1ccc2c(Nc3cc(CC(=O)Nc4cccc(F)c4)[nH]n3)ncnc2c1 [AZD2811] (first compound max 1 µM, 7x7, partner max 1 µM)	0.0806	0.203	0.297	0.609	0.291	0.196	0.392	0.532	0.944	0.287	0.719	0.288	0.142	0.506	0.112	0.45	0.598	0.255	0.148	0.317
Cn1cnc2c(F)c(Nc3ccc(Br)cc3Cl)c(C(=O)NOCCO)cc21 [Selumetinib] + C=CCn1c(=O)c2cnc(Nc3ccc(N4CCN(C)CC4)cc3)nc2n1-c1cccc(C(C)(C)O)n1 [AZD1775] (first compound max 10 µM, partner max 1 µM)	0.904	0.64	0.276	0.799	0.635	0.0375	1	0.483	1	0.536	0.906	0.683	0.664	0.944	0.41	0.428	0.909	0.315	0.138	0.48
C=CCn1c(=O)c2cnc(Nc3ccc(N4CCN(C)CC4)cc3)nc2n1-c1cccc(C(C)(C)O)n1 [AZD1775] + O=C(c1cc(Cc2n[nH]c(=O)c3ccccc23)ccc1F)N1CCN(C(=O)C2CC2)CC1 [Olaparib] (first compound max 1 µM, partner max 10 µM)	0.716	0.604	0.24	0.76	0.53	0.193	0.933	0.41	0.986	0.574	0.888	0.733	0.857	0.962	0.472	0.378	0.806	0.462	0.14	0.634
C=CCn1c(=O)c2cnc(Nc3ccc(N4CCN(C)CC4)cc3)nc2n1-c1cccc(C(C)(C)O)n1 [AZD1775] + C[C@@H]1COCCN1C2=NC(=NC(=C2)C3(CC3)[S@](=N)(=O)C)C4=C5C=CNC5=NC=C4 [AZD6738] (first compound max 1 µM, partner max 10 µM)	0.847	0.749	0.369	0.938	0.739	0.434	1	0.674	0.999	0.737	0.901	0.967	0.941	0.958	0.536	0.623	0.831	0.65	0.531	0.794
